For orientation: ED50 means the dose at which the effect has come halfway, by size or by number of responders. In general, Ki refers to the dissociation constant of the complex between target and ligand, obtained from inhibition or displacement. The low end stands for tighter binding, the high end for weaker binding. A word on the Kb: it is the affinity of an antagonist, worked out from how it opposes an agonist.

Data on ten molecules can be found in ChEMBL document CHEMBL1151569, “Diphenylmethyl ethers: synthesis and histamine H3-receptor antagonist in vitro and in vivo activity” (Bioorg Med Chem Lett, 1996).

Assay [1] addresses Histamine H3 receptor (Mus musculus) (UniProt P58406). The assay is described as follows: In vivo antagonistic activity against histamine H3-receptor of Swiss mice brain after peroral administration. It counts as functional, organism-based.
The target of a further assay is Histamine H3 receptor (Rattus norvegicus, UniProt Q9QYN8). The assay is described as follows: In vitro antagonistic activity against histamine H3-receptor in an assay with K+-evoked depolarisation-induced release of [3H]histamine of synaptosomes of rat cerebral cortex. It counts as functional, subcellular, Brain.
Histamine H3 receptor, sequence (Q9QYN8 whole entry): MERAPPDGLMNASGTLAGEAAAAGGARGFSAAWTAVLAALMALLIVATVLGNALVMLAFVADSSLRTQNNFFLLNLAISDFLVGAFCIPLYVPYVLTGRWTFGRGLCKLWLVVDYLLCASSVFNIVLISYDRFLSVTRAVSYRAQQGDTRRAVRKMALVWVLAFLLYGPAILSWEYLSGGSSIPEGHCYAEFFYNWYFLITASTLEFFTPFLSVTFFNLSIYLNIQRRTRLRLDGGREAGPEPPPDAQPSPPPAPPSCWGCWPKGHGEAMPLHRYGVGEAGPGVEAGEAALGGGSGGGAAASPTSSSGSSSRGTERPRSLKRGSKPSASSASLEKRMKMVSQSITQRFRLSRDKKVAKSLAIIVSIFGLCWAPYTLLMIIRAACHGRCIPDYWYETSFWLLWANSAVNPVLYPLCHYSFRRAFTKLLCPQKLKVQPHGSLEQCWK
The target of assay [2] is Histamine H2 receptor (Cavia porcellus) (UniProt P47747). The assay is described as follows: In vitro antagonistic activity against histamine H2-receptor of guinea pig atrium. Particulars: Cardiac atrium. It counts as functional, tissue-based.
Histamine H2 receptor (Cavia porcellus), sequence (P47747 whole entry): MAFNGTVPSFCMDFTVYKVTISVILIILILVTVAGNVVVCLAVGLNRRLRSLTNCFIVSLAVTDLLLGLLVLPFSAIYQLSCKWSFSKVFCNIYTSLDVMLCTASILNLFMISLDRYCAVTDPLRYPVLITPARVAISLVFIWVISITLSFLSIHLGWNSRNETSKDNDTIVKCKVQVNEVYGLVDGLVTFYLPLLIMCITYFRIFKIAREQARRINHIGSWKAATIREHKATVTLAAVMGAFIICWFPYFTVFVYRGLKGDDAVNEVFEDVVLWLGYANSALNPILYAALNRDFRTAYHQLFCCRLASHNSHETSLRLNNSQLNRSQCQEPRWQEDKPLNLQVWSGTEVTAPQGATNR
The target in assay [3] is Histamine H1 receptor (Cavia porcellus) (UniProt P31389). The assay is described as follows: In vitro antagonistic activity against histamine H1-receptor of guinea pig ileum. It counts as functional, tissue-based.
Histamine H1 receptor (Cavia porcellus), sequence (P31389 whole entry): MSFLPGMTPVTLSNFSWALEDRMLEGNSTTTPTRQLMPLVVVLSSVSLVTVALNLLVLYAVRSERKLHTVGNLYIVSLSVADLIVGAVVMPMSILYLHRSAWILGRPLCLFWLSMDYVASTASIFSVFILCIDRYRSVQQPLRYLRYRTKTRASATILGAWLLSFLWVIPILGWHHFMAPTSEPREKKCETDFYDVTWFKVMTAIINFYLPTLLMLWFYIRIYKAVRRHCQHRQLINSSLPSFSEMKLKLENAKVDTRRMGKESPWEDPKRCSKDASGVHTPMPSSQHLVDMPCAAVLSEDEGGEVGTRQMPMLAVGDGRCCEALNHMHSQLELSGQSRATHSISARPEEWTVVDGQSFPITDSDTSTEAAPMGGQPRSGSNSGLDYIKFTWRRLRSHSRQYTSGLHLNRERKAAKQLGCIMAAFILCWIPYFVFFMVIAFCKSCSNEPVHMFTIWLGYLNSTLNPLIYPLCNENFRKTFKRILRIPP

Histamine H3 receptor (Mus musculus), sequence (P58406 whole entry): as the sequence (Q9QYN8 whole entry) above, with T15A, A286T, A290G, R387H, I389V counted along it

With `c1ccc2c(COCCCc3c[nH]cn3)cccc2c1`, the 50% effect level in assay [1] (ED50) was put at a dose of 3.2 mg/kg. Further, the Ki at Histamine H3 receptor is 20 nM. The molecule further returned a -Log K in assay [2] of 4.9.
`c1ccc(COCCCc2c[nH]cn2)cc1` showed an ED50 in assay [1] above 10 mg/kg. The molecule further gave a Ki at Histamine H3 receptor of 20 nM. In assay [2], the -Log K worked out at 3.7. For the same molecule, the antagonist dissociation constant (Kb) in assay [3] turned out to be 20000 nM.
As to `S=C(NC1CCCCC1)N1CCC(c2cnc[nH]2)CC1`, it took a dose of 1 mg/kg to reach the 50% effect level in assay [1] (ED50). For the same molecule, in assay [2], the -Log K is below 5. The Kb in assay [3] was above 100000 nM.
Take `Fc1ccc(C(OCCCc2c[nH]cn2)c2ccc(F)cc2)cc1`: in assay [1], the 50% effect level (ED50) was put at a dose of 1.1 mg/kg. Besides, the Ki at Histamine H3 receptor is 25.1 nM. The -Log K in assay [2] was 5.6.
In the case of `FC(F)(F)c1ccc(C(OCCCc2c[nH]cn2)c2ccccc2)cc1` (stereo not given), the 50% effective dose (ED50) in assay [1] was above 10 mg/kg. The same molecule gave a Ki at Histamine H3 receptor of 200 nM.
Consider `c1ccc(C(OCCCc2c[nH]cn2)c2ccccc2)cc1`, for which, in assay [1], the 50% effect level (ED50) was put at a dose of 2.4 mg/kg. Further, affinity on Histamine H3 receptor was put at a Ki of 25.1 nM. The -Log K in assay [2] was 5.5. In addition, the antagonist dissociation constant (Kb) in assay [3] came to 501 nM.
In assay [1], `Clc1ccc(C(OCCCc2c[nH]cn2)c2ccccc2)cc1` (stereo not given) had an ED50 of 3.9 mg/kg. This molecule also yielded a -Log K in assay [2] of 5.2.
In turn, `Fc1ccc(C(OCCCc2c[nH]cn2)c2ccccc2)cc1` (stereo not given) showed an ED50 in assay [1] of 1.2 mg/kg. Moreover, the inhibition constant (Ki) at Histamine H3 receptor is 25.1 nM. Besides, the -Log K in assay [2] amounted to 5.3.
Turning to `N=C(NCc1ccc(Cl)cc1)SCCCc1c[nH]cn1`, the ED50 in assay [1] is 26 mg/kg. The molecule also returned a -Log K in assay [2] below 6. In assay [3], this molecule came in with an antagonist equilibrium constant (Kb) above 1000 nM.
With `Brc1ccc(C(OCCCc2c[nH]cn2)c2ccccc2)cc1` (stereo not given), the 50% effective dose (ED50) in assay [1] amounted to 3.6 mg/kg. The same molecule showed an inhibition constant (Ki) at Histamine H3 receptor of 126 nM. The molecule further came in with a -Log K in assay [2] of 5.4.
